Consider 3 molecules from patent US10858305B2, “Perillyl alcohol-3-bromopyruvate conjugate and methods of treating cancer” (NeOnc Technologies, Inc., priority 2016, dated 2020).

Entries after “also recorded” stand apart in the source; their conditions may differ.

What all share (format): cell-based, human
One assay relates to tumor cell lines. Kind of assay: cells. To be noted: Homo sapiens; MTT, 24 hours; POH alone; read-out: concentration required to reach IC50. On the procedure:
Different tumor cell lines were treated with 3-BP mixed with POH, and the effects were compared to the effects of NEO218, as well as to 3-BP alone. The cells were treated for 24 hours, and then the MTT assay was conducted to measure cell viability.

The test system of assay [1] is MDA-MB-231 breast cancer cells. Kind of assay: LDH release assay in MDA-MB-231 / breast cancer cell lines. Conditions: breast cancer cell lines, 24 hours. The method, then:
(§1) (A) MTT assay was performed after 24 hours. […] (B) LDH assay was performed after […]. LDH release by untreated cells was set to 1. Relative fold increase is shown (n=3).
(§2) (A) MTT assay was performed after 24 hours. Viability of untreated cells was set at 100% (data points are averages of 2 experiments). (B) LDH assay was performed after 24 hours. LDH release by untreated cells was set to 1. Relative fold increase is shown (averages from 2 experiments). (C) Representative photos show typical colony formation after initial 48 hours of drug treatment. In all cases of combination treatment with 3-BP mixed with […] (3-BP+POH), the indicated concentrations refer to each individual drugs, i.e., 100 μM 3-BP+POH means that 100 μM 3-BP was combined with 100 μM POH.
The capacity for rapid cell killing by NEO218 relative to 3-BP, POH and 3-BP+POH was evaluated via LDH assay, where LDH release is used as a proxy for cell death.
In FIG. 4, Panels (a) and (b), show the results of treating breast cancer cell lines with increasing concentrations of NEO218, 3-BP, or 3-BP mixed with POH. […] In all cases a-d, the release of LDH (as a marker of cell death) was measured after 24 hours.
Depending on the cell line, 2000 to 4000 cells per well were seeded in a volume of 50 μL into a 96-well plate. The next day, drugs ere added in an additional 50 μL of medium. At different time points (usually after 24 hours of incubation), 50 μL medium was removed and processed with the LDH Cytotoxicity Assay Kit (Thermo Fisher Scientific, Waltham, Mass.) according to the manufacturer's instructions. This kit measures extracellular LDH in culture medium using an enzymatic reaction that results in a red formazan product, which can be measured spectrophotometrically. The absorbance was measured at 490 and 680 nm. All LDH levels were normalized to untreated controls and presented as fold change of the controls.

Assay [2] deals with tumor cells (two cell lines, incl. MCF7/Dox). Description: Colony formation assay (CFA), 24 hours drug exposure (FIG. 5). To be noted: Homo sapiens, MCF7-DOX, colonies after ten to fifteen days, read-out: IC50 (cell survival and colony formation). On the procedure:
The effect of NEO218 on tumor cell survival and colony formation relative to 3-BP, POH and 3-BP+POH was evaluated via the colony formation assay (CFA). Six hundred cells per culture well were seeded and exposed to increasing concentrations of NEO218, 3-BP, a mix of 3-BP+POH, or POH alone. After 24 hours, all drugs were removed from cells and fresh culture medium was added. Ten to fifteen days later, the surviving cells had formed colonies of descendants, which were stained and counted.

Assay [3] concerns all cell types (breast, brain, ovary, colon cancer cell lines). Description: Summary of cytotoxicity over MTT, LDH and colony formation assays (FIGS. 2-5). Conditions: all cells. From the text:
The tumor cell-killing potency of NEO218 was characterized by in vitro, short-term MTT assays (measuring viability of cells via determination of metabolic activity), LDH assays (measuring the release of lactate dehydrogenase as an indicator of leaky cell membranes, which are indicative of dying cells), and colony-formation assays (CFA, which determine long-term survival of drug-treated cells and their ability to spawn a colony of descendants). Several established cell lines derived from cancers of the breast were used as target cells (including MDA-MB-231; MDA-MB-468; T47D; MCF7; MCF7/Dox; BTB12), brain (T98G; U251), ovary (A2780), and colon (HCT116). In all cases, cells in culture were exposed to increasing concentrations of agents for 24 or 48 hours.

For another assay, the system named is MDA-MB-231 cells. Description: MTT short-term toxicity assay in MDA-MB-231 cells. Conditions: MDA-MB-231. On the procedure:
as §1, §2
Methylthiazoletetrazolium (MTT) assays were performed as described earlier.

For assay [4], the system named is HCT116 colon cancer cells. Kind of assay: Cellular ATP content assay. Conditions: 100 nM rotenone in glucose-free medium. On the procedure: HCT116 cells were treated with 40 μM 3-BP or NEO218. As a point of reference, cells were also exposed to 100 nM rotenone in glucose-free medium. ATP levels were determined after 3 and 6 hours. ATP levels in untreated cells were set at 100% (corresponding to 26.6 nmol per one million cells).
HCT116 colon cancer cells were treated cells with: NEO218, 3-BP; rotenone (a mitochondrial poison that blocks the respiratory chain); medium without glucose (“no gluc”; in order to shut down glycolysis); and, rotenone in combination with absent glucose (to cease all intracellular ATP production). After 3 hours of treatment, a commercially available ATP detection assay kit was employed to determine the relative levels of ATP present.
ATP content of cells was measured with the ATP Colorimetric/Fluorometric Assay kit (Biovision Inc., Milpitas, Calif.), which utilizes the phosphorylation of glycerol to generate a product that is quantified by colorimetry at 570 nm. Approximately 1×10^6 cells were cultured in 10-cm tissue culture plates, exposed to drug treatment for various time periods, and then processed as per manufacturer's instructions. All ATP levels were normalized to untreated controls and presented as percentage of controls.

In assay [5] the test system is cleaved caspase 7, cleaved PARP, γ-H2AX in MCF7, MDA-MB-231 and HCT116 cells. Kind of assay: Western blot for apoptosis markers. Conditions: STS as positive control. The method, then: (§3) (A) FACS analysis of HCT116 cells after treatment for 2, 4, or 8 hours with vehicle, 30 μM 3-BP, 30 μM NEO218, or 1 μM staurosporine (STS). […] (B) Western blot analysis of apoptotic markers. In the top section, MDA-MB-231 cells were treated with 30 μM NEO218 or 1 μM STS for various time points. In the lower section, HCT116 cells were treated with the indicated concentrations of 3-BP, NEO218, or STS for 16 hours. In all cases cell lysates were prepared and analyzed for the well-established apoptotic markers cleaved PARP, cleaved (i.e., activated) caspase 7 (cl. C-7), and phosphorylated (i.e., active) H2AX. Actin was used as a loading control. (C) HCT116 cells were pretreated with 50 μM Z-VAD-FMK for one hour, followed by the addition of increasing concentrations of 3-BP or NEO218. Cell viability was determined by MTT assay 24 hours later. Data points are averages from n=3.
The capacity for NEO218 to induce apoptosis was evaluated in a series of experiments. Three different cell lines were treated 3-BP and NEO218. Drug-treated cells were harvested, and cellular lysates were analyzed by Western blot for the presence of the three well-established markers of apoptosis: • cleaved caspase 7 (cl. C7); • cleaved (cl.) vs. full-length (f.l.) PARP; and, • induction of γ-H2AX (which indicates DNA cleavage).
The appearance of cl. C7 and cl. PARP is indicative of ongoing apoptotic processes. In all cases, lysates were also probed for the presence of actin as a control.
Two breast cancer cell lines (MCF7 and MDA-MB-231) and one colon cancer cell line (HCT116) were treated with increasing concentrations of NEO218 or 3-BP. As a control, they were also treated with staurosporine (STS), a known potent inducer of apoptosis. Western blot analyses for the presence of apoptosis markers are shown in the left panels of FIG. 6.
Total cell lysates were analyzed by Western blot analysis as described earlier. Primary antibodies against cleaved caspase 7 and PARP were obtained from Cell Signaling Technology (Danvers, Mass.), and antibodies against actin (C-11) and MCT1 (H-1) were obtained from Santa Cruz Biotechnology (Santa Cruz, Calif.). All antibodies were used according to the manufacturers' recommendations, except that in the case of MCT1 detection, the boiling step was omitted before loading the samples onto the polyacrylamide gel. All immunoblots were repeated at least once to confirm the results.

For a further assay, the system named is HCT116 cells. Kind of assay: FACS analysis for annexin V and propidium iodide. To be noted: 2, 4 or 8 hours of treatment. The method, then: as §3
In the absence of indications that apoptotic mechanisms played a significant role in cell death induced by NEO218, necrosis was investigated as a potential key mechanism. The distinction between apoptotic and necrotic cell death was made by measuring annexin V staining (a marker of apoptosis) and PI (propidium iodide) staining (a marker of necrosis) of drug-treated cells, in comparison to non-drug-treated cells (as a control). Measurements of annexin V and PI were done by FACS analysis after 2, 4, or 8 hours of treatment. Cells were treated with NEO218, 3-BP, and staurosporine (individually), and incorporation of propidium iodide (PI, a marker of necrotic cell death) or annexin V (a marker for apoptosis) was determined by fluorescence-activated cell sorting.
The results are organized in FIG. 8 as follows: no treatment (top row), 3-BP (second row), NEO218 (third row), and staurosporine (bottom row).
Characterization of cell death was performed by flow cytometry using the Alexa Fluor® 488 Annexin V/Dead Cell Apoptosis kit (Thermo Fisher Scientific). This kit contains recombinant, green fluorophore-conjugated annexin V, which reacts with apoptotic cells, and DNA-binding, red-fluorescent propidium iodide (PI), which is impermeant to live and apoptotic cells, but stains dead cells. The different cell populations can be distinguished by green fluorescence (apoptotic cells), red fluorescence (necrotic/dead cells), and no fluorescence (live cells) during flow cytometry with 488 nm laser excitation. Control or drug-treated cells were processed as per manufacturer's instructions, followed by flow cytometry of 10,000 cells per point with an LSR II (BD Biosciences, San Jose, Calif.) at the USC Flow Cytometry Core Facility.

For the molecule `C=C(C)[C@@H]1CC=C(CO)CC1` [POH, perillyl alcohol], the IC50 in the assay on tumor cell lines was at least 500 µM; in assay [2], above 1000 µM. The “toxic potency by LDH release” value in assay [1] is listed as “requires fairly high concentrations to achieve cell killing”. For the same molecule, the figures for the “IC50 of POH alone” value (in assay [3]; in the assay with MDA-MB-231 cells) were “several hundred” and “approaching the millimolar range”, respectively.
`C=C(C)[C@H]1Cc2c(ccc3c2O[C@@H]2COc4cc(OC)c(OC)cc4[C@@H]2C3=O)O1` [rotenone]: the ATP level result in assay [4] (after six hours) is given as “about 10 % of normal”; in assay [4] (within the first 3 hours, untreated = 100%), below 25%.
For `CN[C@@H]1C[C@H]2O[C@@](C)([C@@H]1OC)n1c3ccccc3c3c4c(c5c6ccccc6n2c5c31)C(=O)NC4` [staurosporine], the “induction of apoptosis markers (cleaved PARP, cleaved caspase 7, γ-H2AX)” value in assay [5] is listed as “striking induction of all 3 markers of apoptosis”; in assay [5] (listed as STS), “triggered pronounced cleavage of PARP, activation of C-7; also recorded: prominent appearance of apoptotic markers”. In addition, the “incorporation of PI (necrosis) versus annexin V (apoptosis)” value was “incorporation of annexin V, but very little PI” in the assay with HCT116 cells and “moved from the lower left quadrant (=fully viable cells) to the lower right quadrant (=annexin V-positive cells)” with HCT116 cells (listed as STS).
